Experimental data taken from patent publication US20170066717A1, “NEW PHENYLAZETIDINECARBOXYLATE OR -CARBOXAMIDE COMPOUNDS” (INVENTIVA, priority 2014, published 2017).
Counter-ions that a name gives are not always drawn.

Legend:
NURR-1/RXRα = biological target: T1, NURR-1/RXRα (Homo sapiens, UniProt P19793); assay: Transactivation test, NURR-1-Gal4/RXRα, luciferase reporter in Cos-7 cells; format: cell-based; settings: for Emax: COS-7, induction level relative to reference XCT0135908 at 2×10^−5 M (=100%), read-out: hNurr1_RXRaFL Emax (%); for EC50: Cos-7 cells, NURR-1-Gal4/RXRα, luciferase reporter, read-out: hNurr1_RXRaFL EC50
T1 construct: expressed in transfected cells; host or cells: Cos-7 cells

NURR-1/RXRγ = biological target: T2, NURR-1/RXRγ (Homo sapiens, UniProt P48443); assay: Transactivation test, NURR-1-Gal4/RXRγ, luciferase reporter in Cos-7 cells; format: cell-based; settings: for Emax: COS-7, induction level relative to reference XCT0135908 at 2×10^−5 M (=100%), read-out: hNurr1_RXRgFL Emax (%); for EC50: Cos-7 cells, NURR-1-Gal4/RXRγ, luciferase reporter, read-out: hNurr1_RXRgFL EC50
T2 construct: expressed in transfected cells; host or cells: Cos-7 cells

[1] = induction level relative to reference XCT0135908 at 2×10^−5 M (=100%)

T2 sequence (P48443 whole entry, the tested form may be a part): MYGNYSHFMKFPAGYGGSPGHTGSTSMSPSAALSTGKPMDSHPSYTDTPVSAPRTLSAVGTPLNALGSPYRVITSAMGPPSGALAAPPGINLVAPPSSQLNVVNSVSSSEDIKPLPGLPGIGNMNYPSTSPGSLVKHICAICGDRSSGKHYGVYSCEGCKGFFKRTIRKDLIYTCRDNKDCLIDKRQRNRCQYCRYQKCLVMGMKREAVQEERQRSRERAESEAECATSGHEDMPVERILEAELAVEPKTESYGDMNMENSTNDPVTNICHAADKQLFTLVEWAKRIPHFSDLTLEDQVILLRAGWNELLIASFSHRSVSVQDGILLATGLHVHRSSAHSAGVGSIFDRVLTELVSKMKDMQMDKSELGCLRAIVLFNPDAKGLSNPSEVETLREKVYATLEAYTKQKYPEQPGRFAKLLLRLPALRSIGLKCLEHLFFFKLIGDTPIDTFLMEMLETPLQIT
T2 sequence (P43354 whole entry partner, the tested form may be a part): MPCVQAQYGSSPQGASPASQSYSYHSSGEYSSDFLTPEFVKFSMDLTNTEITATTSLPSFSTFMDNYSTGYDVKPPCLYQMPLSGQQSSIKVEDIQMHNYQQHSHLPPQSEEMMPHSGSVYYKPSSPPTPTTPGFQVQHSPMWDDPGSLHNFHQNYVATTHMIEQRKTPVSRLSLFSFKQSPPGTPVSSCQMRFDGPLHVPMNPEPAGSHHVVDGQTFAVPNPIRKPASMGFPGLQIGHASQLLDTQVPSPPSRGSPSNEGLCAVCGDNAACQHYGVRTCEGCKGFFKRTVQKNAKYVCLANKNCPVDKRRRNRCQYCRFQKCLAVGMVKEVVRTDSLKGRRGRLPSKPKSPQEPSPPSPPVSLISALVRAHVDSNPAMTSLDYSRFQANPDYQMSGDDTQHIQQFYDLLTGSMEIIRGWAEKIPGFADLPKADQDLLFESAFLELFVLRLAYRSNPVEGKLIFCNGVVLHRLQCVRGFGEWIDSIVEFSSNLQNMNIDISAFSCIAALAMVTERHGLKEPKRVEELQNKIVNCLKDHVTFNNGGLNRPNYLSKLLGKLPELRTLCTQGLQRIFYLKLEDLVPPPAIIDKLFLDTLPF
T2 sequence (P04386 1-147 partner limits assumed): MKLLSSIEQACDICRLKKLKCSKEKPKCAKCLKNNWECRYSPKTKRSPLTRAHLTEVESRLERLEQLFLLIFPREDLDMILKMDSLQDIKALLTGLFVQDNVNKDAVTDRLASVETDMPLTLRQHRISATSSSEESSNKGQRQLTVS
T1 sequence (P19793 whole entry, the tested form may be a part): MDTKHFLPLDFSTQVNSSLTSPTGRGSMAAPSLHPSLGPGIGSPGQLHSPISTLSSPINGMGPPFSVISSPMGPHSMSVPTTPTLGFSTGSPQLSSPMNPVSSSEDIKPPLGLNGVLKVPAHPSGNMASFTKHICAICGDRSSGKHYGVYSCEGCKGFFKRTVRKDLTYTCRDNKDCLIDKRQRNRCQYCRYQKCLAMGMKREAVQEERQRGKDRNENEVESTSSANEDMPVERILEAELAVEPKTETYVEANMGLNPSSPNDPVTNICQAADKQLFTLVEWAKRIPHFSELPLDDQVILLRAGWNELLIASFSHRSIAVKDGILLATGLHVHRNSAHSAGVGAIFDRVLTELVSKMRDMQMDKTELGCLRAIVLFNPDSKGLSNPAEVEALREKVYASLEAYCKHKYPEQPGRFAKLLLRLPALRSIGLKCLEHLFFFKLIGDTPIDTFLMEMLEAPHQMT
T1 sequence (P43354 whole entry partner, the tested form may be a part): as the sequence (P43354 whole entry partner, the tested form may be a part) above
T1 sequence (P04386 1-147 partner limits assumed): as the sequence (P04386 1-147 partner limits assumed) above

| melting point [°C] | Emax (NURR-1/RXRα) [%] | EC50 (NURR-1/RXRα) [nM] | Emax (NURR-1/RXRγ) [%] | EC50 (NURR-1/RXRγ) [nM] | Compound | also measured |
| --- | --- | --- | --- | --- | --- | --- |
| 148 to 154 |  |  |  |  | CC1(C)CN(CC(F)(F)F)c2c(cc(C(F)(F)F)cc2-c2cccc(N3CC(C(=O)O)C3)c2)O1 (as salt: ammonium) [Example 215, tert-butylammonium 1-[3-[2,2-dimethyl-4 (2,2,2-trifluoromethyl)-7-(trifluoromethyl)-3H-1,4-benzoxazin-5-yl]phenyl]azetidine-3-carboxylate] |  |
| 165 to 177 |  |  |  |  | CC(C)c1ccc2c(c1)CC(C)(C)CN2c1cccc(N2CC(C(=O)O)C2)c1 (as salt: ammonium) [Example 245, tert-butylammonium 1-[3-(6-isopropyl-3,3-dimethyl-2,4-dihydroquinolin-1-yl)phenyl]azetidine-3-carboxylate] |  |
| 204 to 211 |  |  |  |  | CC1(C)Oc2cc(C#N)ccc2N(c2cccc(N3CC(C(=O)O)C3)c2)C1=O (as salt: ammonium) [Example 254, tert-butylammonium 1-[3-(7-cyano-2,2-dimethyl-3-oxo-1,4-benzoxazin-4-yl)phenyl]azetidine-3-carboxylate] |  |
| 131 to 133 |  |  |  |  | O=C(O)C1CN(c2cccc(N3CC4(CCCC4)c4cc(Cl)ccc43)c2)C1 (as salt: ammonium) [Example 257, tert-butylammonium 1-[3-(5′-chlorospiro[cyclopentane-1,3′-indolin]-1′-yl)phenyl]azetidine-3-carboxyate] |  |
| 109 |  |  |  |  | CCCc1ccc(C(C)C)cc1-c1cccc(N2CC(C(=O)O)C2)c1 (as salt: salt) [Example 195, piperazin-1-ium-1-[3-(5-isopropyl-2-propylphenyl)phenyl]azetidine-3-carboxylate] |  |
| 76 to 79 | 99 | 10 |  |  | O=C(O)C1CN(c2cccc(-c3cc(C(F)(F)F)cc4c3NCCO4)c2)C1 [Example 65, 1-[3-[7-(trifluoromethyl)-3,4-dihydro-2H-1,4-benzoxazin-5-yl]phenyl]azetidine-3-carboxylic acid] |  |
| 230 to 234 | 55 | 2920 |  |  | CN(C)C(=O)c1cn(-c2cccc(N3CC(C(=O)O)C3)c2)c2ccc(C(F)(F)F)cc12 [Example 131] |  |
| 190 to 200 | 115 | 4 |  |  | CC(C)(C)c1cc2c(c(-c3cccc(N4CC(C(=O)[O-])C4)c3)c1)NCC1(CCC1)O2.[Na+] [Example 205, sodium 1-[3-(7-tert-butylspiro[3,4-dihydro-1,4-benzoxazine-2,1′-cyclobutane]-5-yl)phenyl]azetidine-3-carboxylate] |  |
| 196 to 203 | 109 | 11 |  |  | CC(C)c1cc2c(c(-c3cccc(N4CC(C(=O)[O-])C4)c3)c1)NCC(C)(C)C2.[Na+] [Example 208, sodium 1-[3-(6-isopropyl-3,3-dimethyl-2,4-dihydro-1H-quinoline-8-yl)phenyl]azetidine-3-carboxylate] |  |
|  |  | 318 |  | 792 | CC(C)Cc1ccc2c(c1)OC(C)(C)CN2c1cccc(N2CC(C(=O)O)C2)c1 [Example 231, tert-butylammonium 1-[3-(7-isobutyl-2,2-dimethyl-3H-1,4-benzoxazin-4yl)phenyl]azetidine-3-carboxylate] | hNurr1_RXRgFL Emax (%) (NURR-1/RXRγ; [1]): 66%; hNurr1_RXRaFL Emax (%) (NURR-1/RXRα; [1]): 58% |
| 88 to 104 |  |  |  |  | CC1(C)Oc2cc(C#N)ccc2N(c2cccc(N3CC(C(=O)O)C3)c2)C1=O [Example 253, 1-[3-(7-cyano-2,2-dimethyl-3-oxo-1,4-benzoxazin-4-yl)phenyl]azetidine-3-carboxylic acid] |  |
|  | 79 | 3 | 79 | 8 | CCC1(CC)C=C(c2cccc(N3CC(C(=O)O)C3)c2)c2ccc(C(F)(F)F)cc2O1 [Example 265] |  |
|  | 117 | 4 | 124 | 4 | CN(C)CCOC(=O)C1CN(c2cccc(N3CC(C)(C)Oc4cc(C(F)(F)F)ccc43)c2)C1 [Example 272, 2-dimethylaminoethyl 1-[3-[2,2-dimethyl-7-(trifluomethyl)-3H-1,4-benzoxazin-4-yl]phenyl]azetidine-3-carboxylate] |  |
|  | 109 | 8 | 98 | 44 | CC1(C)CN(c2cccc(N3CC(C(=O)NCCO)C3)c2)c2ccc(C(F)(F)F)cc2O1 [Example 275, 1-[3-[2,2-dimethyl-7-(trifluoromethyl)-3H-1,4-benzoxazin-4-yl]phenyl]-N-(2-hydroxyethyl)azetidine-3-carboxamide] |  |
|  | 105 | 15 | 92 | 150 | CC1(C)CN(c2cccc(N3CC(C(=O)NC(CO)CO)C3)c2)c2ccc(C(F)(F)F)cc2O1 [Example 276, 1-[3-[2,2-dimethyl-7-(trifluoromethyl)-3H-1,4-benzoxazin-4-yl]phenyl]N-[2-hydroxy-1-(hydroxymethyl)ethyl]azetidine-3-carboxamide] |  |

The remaining lines, values behind:

| Compound | melting point [°C] | Emax (NURR-1/RXRα) [%] | EC50 (NURR-1/RXRα) [nM] | Emax (NURR-1/RXRγ) [%] | EC50 (NURR-1/RXRγ) [nM] | also measured |
| --- | --- | --- | --- | --- | --- | --- |
| CCc1cc2c(c(-c3cccc(N4CC(C(=O)O)C4)c3)c1)NCC(C)(C)O2 (as salt: ammonium) [Example 207, tert-butylammonium 1-[3-(7-ethyl-2,2-dimethyl-3,4-dihydro-1,4-benzoxazin-5-yl)phenyl]azetidine-3-carboxylate] | 100 to 124 |  |  |  |  |  |
| CN1CC2(CCC2)Oc2cc(C(C)(C)C)cc(-c3cccc(N4CC(C(=O)O)C4)c3)c21 (as salt: ammonium) [Example 213, tert-butylammonium 1-[3-(7-tert-butyl-4-methyl-spiro[3H-1,4-benzoxazine-2,1′-cyclobutane]-5-yl)phenyl]azetidine-3-carboxylate] | 170 to 178 |  |  |  |  |  |
| CC(C)Cc1ccc2c(c1)OC(C)(C)CN2c1cccc(N2CC(C(=O)O)C2)c1 (as salt: ammonium) [Example 231, tert-butylammonium 1-[3-(7-isobutyl-2,2-dimethyl-3H-1,4-benzoxazin-4yl)phenyl]azetidine-3-carboxylate] | 120 to 121 |  |  |  |  |  |
| CCC1(CC)C=C(c2cccc(N3CC(C(=O)O)C3)c2)c2ccc(C(F)(F)F)cc2O1 (as salt: ammonium) [Example 265] | 147 to 152 |  |  |  |  |  |
| CC1(C)CC(c2cccc(N3CC(C(=O)O)C3)c2)c2ccc(C(F)(F)F)cc2O1 (centres unmarked) (as salt: ammonium) [Example 270, tert-butylammonium 1-[3-[2,2-dimethyl-7-(trifluoromethyl)chroman-4-yl]phenyl]azetidine-3-carboxylate] | 116 to 122 |  |  |  |  |  |
| CC1(C)CN(c2cccc(N3CC(C(=O)O)C3)c2)c2ccc(Br)cc2O1 (as salt: sodium) [Example 222, sodium 1-[3-(7-bromo-2,2-dimethyl-3H-1,4-benzoxazin-4-yl)phenyl]azetidine-3-carbxoylate] | 140 |  |  |  |  |  |
| O=C(O)C1CN(c2cccc(N3CCOc4cc(C(F)(F)F)ncc43)c2)C1 (as salt: sodium) [Example 240, sodium 1-[3-[7-(trifluoromethyl)-2,3-dihydropurido[4,3][1,4]oxazin-4-yl]phenyl]azetidine-3-carboxylate] | 49 to 63 |  |  |  |  |  |
| CCS(=O)(=O)c1cn(-c2cccc(N3CC(C(=O)O)C3)c2)c2ccc(C(F)(F)F)cc12 [Example 138, 1-[3-[3-(ethylsulfonyl)-5-(trifluoromethyl)indol-1-yl]phenyl]azetidine-3-carboxylic acid] | 161 to 168 | 116 | 134 |  |  |  |
| CC(C)Cc1ccc2c(c1)OC(C)(C)CN2c1cccc(N2CC(C(=O)O)C2)c1 [Example 230, 1-[3-(7-isobutyl-2,2-dimethyl-3H-1,4-benzoxazin-4yl)phenyl]azetidine-3-carboxylic acid] |  | 62 | 535 | 85 | 1000 |  |
| O=C(O)C1CN(c2cccc(N3CCOc4cc(C(F)(F)F)ncc43)c2)C1 [Example 240, sodium 1-[3-[7-(trifluoromethyl)-2,3-dihydropurido[4,3][1,4]oxazin-4-yl]phenyl]azetidine-3-carboxylate] |  | 98 | 1830 | 83 | 3260 |  |
| O=C(O)C1CN(c2cccc(N3CC4(CCCC4)c4cc(Cl)ccc43)c2)C1 [Example 257, tert-butylammonium 1-[3-(5′-chlorospiro[cyclopentane-1,3′-indolin]-1′-yl)phenyl]azetidine-3-carboxyate] |  | 103 | 23 | 89 | 59 |  |
| CC1(C)CN(c2cccc(N3CC(C(=O)NCC(O)CO)C3)c2)c2ccc(C(F)(F)F)cc2O1 (centres unmarked) [Example 277, N-(2,3-dihydroxypropyl)-1-[3-[2,2-dimethyl-7-(trifluoromethyl)-3H-1,4-benzoxazin-4-yl]phenyl]azetidine-3-carboxamide] |  | 103 | 19 | 97 | 52 |  |
| CC1(C)CN(c2cccc(N3CC(C(=O)NCCCO)C3)c2)c2ccc(C(F)(F)F)cc2O1 [Example 278, 1-[3-[2,2-dimethyl-7-(trifgluoromethyl)-3H-1,4-benzoxazin-4-yl]phenyl]-N-(3-hydroxypropyl)azetidine-3-carboxamide] |  | 110 | 29 | 117 | 74 |  |
| CN(C)CCNC(=O)C1CN(c2cccc(N3CC(C)(C)Oc4cc(C(F)(F)F)ccc43)c2)C1 [Example 279, N-3(2-dimethylaminoethyl)-1-[3-[2,2-dimethyl-7-(trifluoromethyl)-3H-1,4-benzoxazin-4-yl]phenyl]azetidine-3-carboxamide] |  | 95 | 375 | 79 |  |  |
